Reference: the supplement of paper PMC10307832

What was measured:
Experiment in all cases: relative viability (nuclei count vs DMSO), 5 days (fraction); higher = more cells survive
BAM7 = compound: CCOC1=CC=CC=C1N=NC2=C(NN(C2=O)C3=NC(=CS3)C4=CC=CC=C4)C [BAM7]
How it was run: (§1)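 Hoechst staining, done together with fixation and permeabilisation, marked nuclei for 4× imaging and MetaXpress counting. This followed 5 days without medium change after lung cancer cell lines, kept overnight at 37 °C in 1536-well plates, were pinned with five library-drug doses (not always all listed) spaced by √10 on vehicle-anchored plates. Viability is the ratio of treated-well to vehicle-well nuclei, expressed as a median across plates. Plates passed only at control CV below 25% with at least one doubling.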

[1] = compound: CCn1c(-c2nonc2N)nc2c(C#CC(C)(C)O)ncc(OC[C@H]3CCCNC3)c21
How it was run: as §1

BAM7 + Decitabine = compound: CCOC1=CC=CC=C1N=NC2=C(NN(C2=O)C3=NC(=CS3)C4=CC=CC=C4)C [BAM7] + Nc1ncn([C@H]2C[C@H](O)[C@@H](CO)O2)c(=O)n1 [Decitabine] (partner 2 µM)
How it was run: (§2)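 After 5 days of treatment, lung cancer cells in 1536-well plates were fixed and stained in a single step (final 0.05% Triton X-100, 1% formaldehyde, 1 ug/ml Hoechst) and their nuclei counted on 4× images. Treatment had been applied by pin tool the day after seeding as one drug alone or as a fixed anchor-drug dose with five library-drug doses (not always all listed) in √10 steps. Relative viability is the nuclei count of treated wells divided by that of vehicle wells, and values are medians of duplicate plates.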

BAM7 + Vorinostat = compound: CCOC1=CC=CC=C1N=NC2=C(NN(C2=O)C3=NC(=CS3)C4=CC=CC=C4)C [BAM7] + O=C(CCCCCCC(=O)Nc1ccccc1)NO [Vorinostat] (partner 1 µM)
How it was run: as §2

UMC-11 was tested, and the relative viability (BAM7; 0.5 µM) was 1.01, the relative viability (BAM7; 5 µM) was 1.1 and the relative viability (BAM7; 15.81 µM) was 1.06. For the same cell line, the relative viability (BAM7; 50 µM) was 1.07, the relative viability ([1]; 0.01 µM) was 0.955 and the relative viability ([1]; 0.03162 µM) was 1.02. The relative viability ([1]; 0.1 µM) was 0.957, the relative viability ([1]; 0.3162 µM) was 0.982 and the relative viability ([1]; 1 µM) was 0.943. For the same cell line, the relative viability (BAM7 + Decitabine; first compound 0.5 µM) was 0.603, the relative viability (BAM7 + Decitabine; first compound 5 µM) was 0.687 and the relative viability (BAM7 + Decitabine; first compound 15.81 µM) was 0.618. The relative viability (BAM7 + Decitabine; first compound 50 µM) was 0.635, the relative viability (BAM7 + Vorinostat; first compound 0.5 µM) was 0.37 and the relative viability (BAM7 + Vorinostat; first compound 5 µM) was 0.478. For the same cell line, the relative viability (BAM7 + Vorinostat; first compound 15.81 µM) was 0.469 and the relative viability (BAM7 + Vorinostat; first compound 50 µM) was 0.362.
